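Following 48 hours of exposure in 96-well plates, responses at five concentrations were used to interpolate endpoints linearly. GI50: concentration for 50% inhibition of growth. TGI: concentration producing complete growth inhibition.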
Legend:
Experiment in all cases: DTP human tumour cell line panel, 48 h
CAKI-1 renal = test system: CAKI-1 renal
COLO 205 colon = test system: COLO 205 colon
KM12 colon = test system: KM12 colon
NCI/ADR-RES ovarian = test system: NCI/ADR-RES ovarian
OVCAR-8 ovarian = test system: OVCAR-8 ovarian
SF-295 CNS = test system: SF-295 CNS
SK-MEL-5 melanoma = test system: SK-MEL-5 melanoma
SN12C renal = test system: SN12C renal
SNB-75 CNS = test system: SNB-75 CNS
SW-620 colon = test system: SW-620 colon

## COc1ccc(-c2cc3c(nn2)-c2ccccc2C3=O)cc1
CAKI-1 renal
  GI50: > 100 µM
  TGI: > 100 µM
COLO 205 colon
  GI50: > 100 µM
  TGI: > 100 µM
KM12 colon
  GI50: 47.7 µM
  TGI: > 100 µM
NCI/ADR-RES ovarian
  GI50: > 100 µM
  TGI: > 100 µM
OVCAR-8 ovarian
  GI50: > 100 µM
  TGI: > 100 µM
SF-295 CNS
  GI50: > 100 µM
  TGI: > 100 µM
SK-MEL-5 melanoma
  GI50: > 100 µM
  TGI: > 100 µM
SN12C renal
  GI50: > 100 µM
  TGI: > 100 µM
SNB-75 CNS
  GI50: > 100 µM
  TGI: > 100 µM
SW-620 colon
  GI50: 72.7 µM
  TGI: > 100 µM

## COc1cc2c(/C=C3/C(=O)Nc4cccc(Cl)c43)c(Cl)n(Cc3ccccc3)c2cc1C
CAKI-1 renal
  GI50: 2.46 µM
  TGI: 31.4 µM
COLO 205 colon
  GI50: 2.94 µM
  TGI: 21.8 µM
KM12 colon
  GI50: 2.46 µM
  TGI: 17.9 µM
NCI/ADR-RES ovarian
  GI50: 2.76 µM
  TGI: 12 µM
OVCAR-8 ovarian
  GI50: 5.21 µM
  TGI: > 71.9 µM
SF-295 CNS
  GI50: 2.11 µM
  TGI: 21.2 µM
SK-MEL-5 melanoma
  GI50: 2.17 µM
  TGI: 11.5 µM
SN12C renal
  GI50: 6.18 µM
  TGI: > 35 µM
SNB-75 CNS
  GI50: 21.1 µM
  TGI: > 100 µM
SW-620 colon
  GI50: 6.11 µM
  TGI: > 100 µM

## COc1cc([C@@H]2c3cc4c(cc3C(O[C@@H]3O[C@@H]5CO[C@@H](c6cccs6)OC5[C@H](O)[C@H]3O)C3COC(=O)[C@@H]32)OCO4)cc(OC)c1O (some centres undefined)
CAKI-1 renal
  GI50: 0.0997 µM
  TGI: 6.98 µM
COLO 205 colon
  GI50: 0.0984 µM
  TGI: 0.809 µM
KM12 colon
  GI50: 0.118 µM
  TGI: 0.796 µM
NCI/ADR-RES ovarian
  GI50: 5.22 µM
  TGI: 50 µM
OVCAR-8 ovarian
  GI50: 0.0856 µM
  TGI: 1.09 µM
SF-295 CNS
  GI50: 0.0224 µM
  TGI: 0.712 µM
SK-MEL-5 melanoma
  GI50: 0.0567 µM
  TGI: 0.573 µM
SN12C renal
  GI50: 0.0272 µM
  TGI: 5.68 µM
SNB-75 CNS
  GI50: 0.0659 µM
  TGI: 0.491 µM
SW-620 colon
  GI50: 0.0603 µM
  TGI: 1.63 µM

## COc1ccc(-n2cc(-c3cc(OC)c(OC)c(OC)c3)[nH]c2=S)cc1OC
CAKI-1 renal
  GI50: > 100 µM
  TGI: > 100 µM
COLO 205 colon
  GI50: > 100 µM
  TGI: > 100 µM
KM12 colon
  GI50: > 100 µM
  TGI: > 100 µM
NCI/ADR-RES ovarian
  GI50: > 100 µM
  TGI: > 100 µM
OVCAR-8 ovarian
  GI50: > 100 µM
  TGI: > 100 µM
SF-295 CNS
  GI50: > 100 µM
  TGI: > 100 µM
SK-MEL-5 melanoma
  GI50: > 100 µM
  TGI: > 100 µM
SN12C renal
  GI50: > 100 µM
  TGI: > 100 µM
SNB-75 CNS
  GI50: 57 µM
  TGI: > 100 µM
SW-620 colon
  GI50: > 100 µM
  TGI: > 100 µM

## O=C(C[C@@H](C(=O)NCc1cccc(C(F)(F)F)c1)N1C(=O)[C@@H](N2C(=O)OC[C@@H]2c2ccccc2)[C@H]1/C=C/c1ccccc1)NC1CCN(Cc2ccccc2)CC1
CAKI-1 renal
  GI50: 14 µM
  TGI: 34.4 µM
COLO 205 colon
  GI50: 2.48 µM
  TGI: 7.12 µM
KM12 colon
  GI50: 3.93 µM
  TGI: 16.7 µM
NCI/ADR-RES ovarian
  GI50: > 100 µM
  TGI: > 100 µM
OVCAR-8 ovarian
  GI50: 3.08 µM
SF-295 CNS
  GI50: 15.6 µM
  TGI: 30.8 µM
SK-MEL-5 melanoma
  GI50: 3.47 µM
  TGI: 12.5 µM
SN12C renal
  GI50: 9.46 µM
  TGI: 30.7 µM
SNB-75 CNS
  GI50: 6.21 µM
  TGI: 23 µM
SW-620 colon
  GI50: 3.91 µM
  TGI: 17.3 µM

## C=C1C(=O)O[C@H]2[C@H]1CC/C(COC(=O)/C=C\C(=O)NCc1ccc(Cn3c(=O)sn(-c4ccc(C#N)cc4)c3=O)cc1)=C\CC[C@@]1(C)O[C@@H]21
CAKI-1 renal
  GI50: 0.354 µM
  TGI: 1.08 µM
COLO 205 colon
  GI50: 0.541 µM
  TGI: 1.41 µM
KM12 colon
  GI50: 0.9 µM
  TGI: 1.84 µM
NCI/ADR-RES ovarian
  GI50: 1.39 µM
  TGI: 5.97 µM
OVCAR-8 ovarian
  GI50: 0.802 µM
  TGI: 2.7 µM
SF-295 CNS
  GI50: 3.54 µM
  TGI: 9.7 µM
SK-MEL-5 melanoma
  GI50: 0.842 µM
  TGI: 1.55 µM
SN12C renal
  GI50: 0.671 µM
  TGI: 1.57 µM
SNB-75 CNS
  GI50: 0.581 µM
  TGI: 1.33 µM
SW-620 colon
  GI50: 0.353 µM
  TGI: 1.22 µM
